# Where two headings read alike, the source gives them in different places. Starred links: 1 amine or outer side, 2 acyl side, 3 side chain; linkers in the order of their positions; H or OH if unused. Positions of bridges follow the written chain, without caps; N, C: chain ends. Non-standard residues stand in square brackets, D forms with d. Residues, ends and D or L forms follow the SMILES beside them. *: point of attachment. NMeF = CN[C@@H](Cc1ccccc1)C(=O)O; NMeI = CC[C@H](C)[C@H](NC)C(=O)O; NMeT = CN[C@H](C(=O)O)[C@@H](C)O; hPhe = N[C@@H](CCc1ccccc1)C(=O)O; NMeβAla = CN(CCC(=O)[*:2])[*:1]; NMeL = CN[C@@H](CC(C)C)C(=O)O; dNMeV = CN[C@@H](C(=O)O)C(C)C; NMeV = CN[C@H](C(=O)O)C(C)C; NMeAbu = CC[C@H](NC)C(=O)O; NMeA = CN[C@@H](C)C(=O)O; Piperidide = C1CCN(*)CC1; Abu = CC[C@H](N)C(=O)O; NBuGly = CCCCNCC(=O)O; βAla = NCCC(=O)O; Sar = CNCC(=O)O; tBu = CC(C)(C)*
# Legend:
# [1] = tested on: Caco-2 cells; test: Membrane permeability test using Caco-2 cells with preincubation; format: in vitro ADME
# [2] = as above; format: in vitro ADME; conditions: Caco-2
# [3] = Metabolic stability test: liver microsomal stability assay; format: in vitro ADME, mouse; conditions: for microsomal CLint at 1 µM: male, pH 7.4, presence of NADPH, read-out: Mouse Hepatic Microsome CLh,int NADPH(+)
# [4] = Caco-2 cells, preincubation 20 to 24 hours, apical FaSSIF/HBSS 1% DMSO pH 6.0, basal HBSS 4% BSA pH 7.4, basal sample at 180 minutes
# [5] = preincubation 20 to 24 hours, Apical FaSSIF/HBSS pH 6.0, Basal HBSS 4% BSA pH 7.4, 180 minutes, read-out: Caco2 Papp
# [6] = mouse liver microsomes 0.5 mg protein/mL, compound 1 µM
# [7] = mouse liver microsomes 0.5 mg protein/mL, compound 1 µM, absence of NADPH
Structure (SMILES),"Caco2 Papp (10^-6 cm/sec) [1, 4]","Papp A→B [2, 5] [×10⁻⁶ cm/s]","microsomal CLint at 1 µM [3, 6] [µL/min/mg]","Mouse Hepatic Microsome CLh,int NADPH(-) [3, 7] [µL/min/mg Protein]",Caco2 Papp (10^-6 cm/sec) ([1]; Caco-2),Papp A→B [2] [×10⁻⁶ cm/s],"Mouse Hepatic Microsome CLh,int NADPH(-) [3] [µL/min/mg Protein]"
CC[C@H](C)[C@H]1C(=O)NCCC(=O)N(C)[C@@H](CC(C)C)C(=O)N[C@H](C(=O)N2CCCCC2)CC(=O)N(C)[C@@H](C)C(=O)N[C@@H](CC(C)C)C(=O)N[C@@H]([C@@H](C)O)C(=O)N(C)[C@@H](Cc2ccccc2)C(=O)NCCC(=O)N(C)[C@@H](C(C)C)C(=O)N[C@@H](CC(C)C)C(=O)N(C)[C@@H]([C@@H](C)CC)C(=O)N[C@@H](CCc2ccccc2)C(=O)N(C)CC(=O)N1C [pd024] ([NMeA]LT[NMeF][βAla][NMeV]L[NMeI][hPhe][Sar][NMeI][βAla][NMeL]D-Piperidide; lactam N-14),,,,,0.30 10^-6 cm/sec,0.3,20.0
CC[C@H](C)[C@@H]1NC(=O)[C@H](CC(C)C)N(C)C(=O)[C@H](CC(C)C)NC(=O)[C@H](C)N(C)C(=O)C[C@@H](C(=O)N2CCCCC2)NC(=O)[C@H](CC(C)C)NC(=O)[C@@H]2CCCN2C(=O)[C@H](CC(C)C)N(C)C(=O)[C@H]([C@@H](C)O)NC(=O)[C@H]([C@@H](C)CC)N(C)C(=O)[C@H](Cc2ccccc2)N(C)C(=O)[C@H](C)NC(=O)[C@H](Cc2ccccc2)N(C)C(=O)[C@H](CC(C)C)NC1=O [pd027] ([NMeA]L[NMeL]IL[NMeF]A[NMeF][NMeI]T[NMeL]PLD-Piperidide; lactam N-14),0.02 10^-6 cm/sec,0.02,42.4,31.1,,,
CC[C@@H]1NC(=O)[C@H]([C@@H](C)O)N(C)C(=O)[C@H](CC(C)C)N(C)C(=O)[C@H]([C@@H](C)CC)NC(=O)[C@H](Cc2ccccc2)N(C)C(=O)CN(C)C(=O)C[C@@H](C(=O)N2CCCCC2)NC(=O)[C@H](C(C)C)N(C)C(=O)[C@H](CC)NC(=O)[C@H](COC(C)(C)C)NC(=O)[C@H](C)N(C)C(=O)[C@H](CC)NC(=O)[C@H](CC(C)C)N(C)C(=O)[C@H](CCc2ccccc2)NC1=O [pd028] ([Sar][NMeF]I[NMeL][NMeT][Abu][hPhe][NMeL][Abu][NMeA]S(tBu)[Abu][NMeV]D-Piperidide; lactam N-14),0.03 10^-6 cm/sec,0.03,37.2,22.1,,,
CC[C@@H]1NC(=O)[C@H](Cc2ccccc2)N(C)C(=O)[C@H](CC(C)C)NC(=O)CNC(=O)[C@H]([C@@H](C)O)N(C)C(=O)[C@H](CC(C)C)N(C)C(=O)[C@H]([C@@H](C)CC)NC(=O)[C@H](Cc2ccccc2)N(C)C(=O)CN(C)C(=O)C[C@@H](C(=O)N2CCCCC2)NC(=O)[C@H](C(C)C)N(C)C(=O)[C@H](CC(C)C)NC(=O)[C@H](C(C)C)NC(=O)[C@H](C)N(C)C1=O [pd030] ([Sar][NMeF]I[NMeL][NMeT]GL[NMeF][Abu][NMeA]VL[NMeV]D-Piperidide; lactam N-14),0.04 10^-6 cm/sec,0.04,33.7,28.5,,,
CC(C)C[C@@H]1NC(=O)[C@H](CC(C)C)N(C)C(=O)[C@H](C(C)C)N(C)C(=O)[C@H](CCc2ccccc2)NC(=O)[C@H]([C@@H](C)O)N(C)C(=O)[C@@H](C(C)C)NC(=O)C[C@@H](C(=O)N2CCCCC2)NC(=O)[C@H](C(C)C)N(C)C(=O)[C@H](CC(C)C)NC(=O)[C@H](Cc2ccccc2)N(C)C(=O)[C@@H]2CCCN2C(=O)[C@H](C(C)C)NC(=O)[C@H](CC(C)C)N(C)C(=O)CN(C)C1=O [pd032] ([dV][NMeT][hPhe][NMeV][NMeL]L[Sar][NMeL]VP[NMeF]L[NMeV]D-Piperidide; lactam N-14),0.72 10^-6 cm/sec,0.72,28.9,28.7,,,
CC[C@@H]1NC(=O)[C@H](C(C)C)N(C)C(=O)[C@H](CC(C)C)NC(=O)[C@H](Cc2ccccc2)N(C)C(=O)[C@@H](C(C)C)N(C)C(=O)C[C@@H](C(=O)N2CCCCC2)NC(=O)[C@H](CC(C)C)NC(=O)[C@H](C(C)C)N(C)C(=O)[C@H](Cc2ccccc2)N(C)C(=O)[C@H](CC(C)C)NC(=O)[C@H](CC(C)C)N(C)C(=O)[C@H](C)N(C)C(=O)[C@H]([C@@H](C)O)NC(=O)[C@H](CC(C)C)N(C)C1=O [pd033] ([dNMeV][NMeF]L[NMeV][Abu][NMeL]T[NMeA][NMeL]L[NMeF][NMeV]LD-Piperidide; lactam N-14),0.03 10^-6 cm/sec,0.03,47.8,34.1,,,
CCCCN1CC(=O)N[C@@H](CC(C)C)C(=O)N(C)[C@@H]([C@@H](C)CC)C(=O)N[C@@H](CC)C(=O)N(C)[C@@H]([C@@H](C)O)C(=O)N(C)[C@@H](Cc2ccccc2)C(=O)N[C@@H]([C@@H](C)CC)C(=O)N(C)[C@@H](CC(C)C)C(=O)N[C@H](C(=O)N2CCCCC2)CC(=O)N(C)[C@@H](C)C(=O)N[C@@H](CC(C)C)C(=O)N(C)[C@@H](CC(C)C)C(=O)N(C)[C@@H](Cc2ccccc2)C(=O)N[C@@H](CC)C1=O [pd035] ([NMeA]L[NMeL][NMeF][Abu][NBuGly]L[NMeI][Abu][NMeT][NMeF]I[NMeL]D-Piperidide; lactam N-14),<0.11 10^-6 cm/sec,< 0.11,28.3,27.5,,,
CC[C@H](C)[C@H]1C(=O)N[C@@H](CC(C)C)C(=O)N(C)[C@@H](CC(C)C)C(=O)N2CCC[C@H]2C(=O)N(C)[C@@H](C(C)C)C(=O)N[C@H](C(=O)N2CCCCC2)CC(=O)N[C@@H](C)C(=O)N(C)[C@@H](CC(C)C)C(=O)N[C@@H](C(C)C)C(=O)N(C)[C@@H](Cc2ccccc2)C(=O)N(C)[C@@H](CC(C)C)C(=O)N[C@@H](C)C(=O)N(C)[C@@H](Cc2ccccc2)C(=O)N[C@@H]([C@@H](C)O)C(=O)N1C [pd036] (A[NMeL]V[NMeF][NMeL]A[NMeF]T[NMeI]L[NMeL]P[NMeV]D-Piperidide; lactam N-14),0.28 10^-6 cm/sec,0.28,35.4,25.7,,,

# Now from value to molecule, other results behind:
"Caco2 Papp (10^-6 cm/sec) [1, 4]","Papp A→B [2, 5] [×10⁻⁶ cm/s]","microsomal CLint at 1 µM [3, 6] [µL/min/mg]","Mouse Hepatic Microsome CLh,int NADPH(-) [3, 7] [µL/min/mg Protein]",Structure (SMILES),Caco2 Papp (10^-6 cm/sec) ([1]; Caco-2),Papp A→B [2] [×10⁻⁶ cm/s],"Mouse Hepatic Microsome CLh,int NADPH(-) [3] [µL/min/mg Protein]"
0.05 10^-6 cm/sec,0.05,14.8,15.8,CC[C@H](C)[C@@H]1NC(=O)[C@H](C)NC(=O)[C@H](C(C)C)N(C)C(=O)[C@H](COC(C)(C)C)NC(=O)[C@H](C)N(C)C(=O)C[C@@H](C(=O)N2CCCCC2)NC(=O)[C@H](C(C)C)NC(=O)[C@H](Cc2ccccc2)N(C)C(=O)[C@H](CC(C)C)N(C)C(=O)[C@H]([C@@H](C)O)NC(=O)[C@H](CC)N(C)C(=O)[C@H](Cc2ccccc2)N(C)C(=O)[C@H](C)NC(=O)[C@@H]2CCCN2C1=O [pd025] ([NMeA]S(tBu)[NMeV]AIPA[NMeF][NMeAbu]T[NMeL][NMeF]VD-Piperidide; lactam N-14),,,
0.58 10^-6 cm/sec,0.58,63.5,29.9,CCCCN1CC(=O)N[C@@H]([C@@H](C)CC)C(=O)N(C)[C@@H](CC(C)C)C(=O)N[C@@H](C(C)C)C(=O)N[C@H](C(=O)N2CCCCC2)CC(=O)N(C)[C@@H](C)C(=O)N(C)[C@@H](CC(C)C)C(=O)N[C@@H]([C@@H](C)O)C(=O)N(C)[C@@H](Cc2ccccc2)C(=O)N[C@@H](CC)C(=O)N(C)[C@@H](Cc2ccccc2)C(=O)N[C@@H](C)C(=O)N(C)CCC(=O)N[C@@H](CC(C)C)C1=O [pd026] ([NMeA][NMeL]T[NMeF][Abu][NMeF]A[NMeβAla]L[NBuGly]I[NMeL]VD-Piperidide; lactam N-14),,,
0.02 10^-6 cm/sec,0.02,38.2,36.6,CC[C@H](C)[C@@H]1NC(=O)[C@H](CC(C)C)N(C)C(=O)C[C@@H](C(=O)N2CCCCC2)NC(=O)[C@H](Cc2ccccc2)N(C)C(=O)[C@H](C(C)C)NC(=O)[C@@H]2CCCN2C(=O)[C@H]([C@@H](C)CC)NC(=O)[C@H](CC)N(C)C(=O)[C@H](C(C)C)N(C)C(=O)[C@H](CC(C)C)NC(=O)[C@H](CC(C)C)N(C)C(=O)[C@H]([C@@H](C)O)NC(=O)[C@H](Cc2ccccc2)NC(=O)CN(C)C1=O [pd029] ([NMeL]I[Sar]FT[NMeL]L[NMeV][NMeAbu]IPV[NMeF]D-Piperidide; lactam N-14),,,
0.04 10^-6 cm/sec,0.04,40.3,32.3,CC[C@@H]1NC(=O)[C@H](C(C)C)N(C)C(=O)[C@H](CC(C)C)NC(=O)[C@H](CC(C)C)N(C)C(=O)[C@H]([C@@H](C)O)NC(=O)CN(C)C(=O)[C@H]([C@@H](C)CC)NC(=O)[C@H](Cc2ccccc2)N(C)C(=O)[C@H](CC(C)C)N(C)C(=O)C[C@@H](C(=O)N2CCCCC2)NC(=O)[C@H](Cc2ccccc2)N(C)C(=O)[C@H](COC(C)(C)C)NC(=O)[C@@H]2CCCN2C(=O)[C@H]([C@@H](C)CC)NC1=O [pd031] ([NMeL][NMeF]I[Sar]T[NMeL]L[NMeV][Abu]IPS(tBu)[NMeF]D-Piperidide; lactam N-14),,,
0.27 10^-6 cm/sec,0.27,46.8,36.0,CC[C@H](C)[C@@H]1NC(=O)[C@H](C)N(C)C(=O)[C@H]([C@@H](C)O)NC(=O)[C@H](Cc2ccccc2)N(C)C(=O)[C@H](COC(C)(C)C)NC(=O)[C@H](CC(C)C)N(C)C(=O)[C@H](C(C)C)NC(=O)CN(C)C(=O)[C@H](Cc2ccccc2)N(C)C(=O)[C@H]([C@@H](C)CC)NC(=O)[C@H](CC(C)C)N(C)C(=O)CCN(C)C(=O)C[C@@H](C(=O)N2CCCCC2)NC(=O)[C@H](CC(C)C)N(C)C1=O [pd034] ([NMeβAla][NMeL]I[NMeF][Sar]V[NMeL]S(tBu)[NMeF]T[NMeA]I[NMeL]D-Piperidide; lactam N-14),,,

# From patent EP4768499A1, “MACROCYCLIC PEPTIDE COMPOUND HAVING CELL MEMBRANE PERMEABILITY AND METABOLIC STABILITY, AND LIBRARY CONTAINING SAME” (Chugai Seiyaku Kabushiki Kaisha, priority 2023, dated 2025)
